Data: patent US20230123589A1, “MOLECULAR MOBILITY ENHANCER OR MOLECULAR DRYING ENHANCER” (TEKDRY INTERNATIONAL, INC., priority 2020, published 2023)

Assay: Evaluation of vapor diffusion (chemical indicators in 2-meter long 4-mm inner diameter polytetrafluoroethylene tube)
Format: physicochemical
Conditions: 50° C., less than 10 torr, 15-minute time period
[1] = introduced into chamber extension
[2] = introduced into process chamber

Source text: A typical diffusion apparatus for conducting these evaluations includes a stainless-steel pressure chamber which is connected to a smaller stainless-steel extension chamber. Connection is made by means of a stainless-steel tube that contains a valve for isolating vapor flow between the vacuum chamber and the chamber extension. The chamber extension contains isolated compartments that admitted molecular mobility enhancer (MME) and/or liquid or solid agent components. The vacuum chamber and the chamber extension are independently heated. […] The isolated compartments within the chamber extension were independently heated. […] The chamber extension as a whole as well as the isolated compartments within the chamber extension are connected to MME and transport moiety sources via a valve and a conduit connected to a flow controller. The chamber extension is also outfitted with a door that can be used for placing solid agent sources within the extension. The entire system (vacuum chamber and chamber extension) is connected to a vacuum system e.g., (comprising a vacuum pump) capable of reducing the pressure and vaporizing the molecular mobility enhancer and liquid or solid transport moieties.
The tube and its contents were placed in the process chamber of the diffusion system. In this test the process chamber was heated to 50° C. […] The door to the diffusion system was closed and sealed. The diffusion system was evacuated to a pressure less than 10 torr. Multiple vaporization/diffusion cycles were performed over the course of a 15-minute time period. At the end of the process the diffusion system was brought to atmosphere and the tube and its contents were removed from the process chamber.
The tube and its contents were placed in the process chamber of the diffusion system. In this test the diffusion system was heated to 50° C. […] The door to the diffusion system was closed and sealed. The diffusion system including the chamber extension was evacuated to a pressure less than 10 torr. Multiple vaporization/diffusion cycles were performed over the course of a 15-minute time period.

SMILES: OO [aqueous hydrogen peroxide (30 wt %), hydrogen peroxide]
- color change on chemical indicators: exposure of entire inner length of the tube to transport moiety vapor [1]: entire inner length of the tube had not been exposed
- color change on chemical indicators: exposure of entire inner length of the tube to transport moiety vapor [2]: entire inner length of the tube had not been exposed

SMILES: CC(C)O [isopropanol]
- color change on chemical indicators: exposure of entire inner length of the tube to transport moiety vapor [1]: entire inner length of the tube had not been exposed
- color change on chemical indicators: exposure of entire inner length of the tube to transport moiety vapor [2]: entire inner length of the tube had not been exposed
